Reference: publication PMC7160832, “Phosphonium Ionic Liquid-Infused Poly(vinyl chloride) Surfaces Possessing Potent Antifouling Properties” (ACS Omega, 2020)

What was measured:
equine erythrocytes = experiment: Hemolysis assay of PILs; format: cell-based; conditions: for hemolysis: 1 h, 37 °C; for hemolytic activity (in words): concentrations up to 25 μg mL^–1, equine erythrocytes
Experimental: To assess the potential of phosphonium-AOT ionic liquids to illicit a hemolytic effect, ionic liquids were assessed for the ability to induce hemolysis of equine erythrocytes according to a previous method.[51] Briefly, 10 mL of fresh defribrinated equine blood was rinsed three times with an equal volume of PBS by centrifugation at 900g for 15 min. Erythrocytes were resuspended in PBS to a concentration of 4% (v/v). Erythrocyte suspension (100 μL) was added to each well of a 96-well microtiter plate and exposed to varying concentrations of ionic liquid for 1 h at 37 °C in an orbital incubator. Exposed solutions were subsequently centrifuged at 1000g for 15 min, and 100 μL was transferred to a fresh 96-well microtiter plate and spectrophotometrically read at 414 nm to determine hemoglobin release. Hexadecyltrimethylammonium bromide (8 mM) was used as a positive control (100% hemolysis) and PBS as a negative control (0% hemolysis). Samples were run in quadruplicate, and percentage hemolysis was calculated as follows [drawing 1]

S. aureus (ATCC 6538) = experiment: MIC and MBC by standardized broth dilution; format: cell-based, Staphylococcus aureus; conditions: for MBC: 99.9% killing; for MBC / MIC: >1000 = beyond tested concentration range; for MIC: 24 h, MHB
Experimental: (§1) S. aureus (ATCC 6538) and P. aeruginosa (PA01) were maintained on cryopreservative beads (Microbank) at −80 °C and cultivated in 100 mL of MHB at 37 °C when needed. Overnight broth was centrifuged (3000 rpm, 12 min) and resuspended in PBS to achieve a final inoculum density of approximately 1 × 10^8 cfu mL^–1.
(§2) The microbiological performance of the ionic liquids was assessed using MHB inoculated with S. aureus or P. aeruginosa according to a standardized broth dilution method.[25] A stock solution of 0.2% w/v of ionic liquid was freshly prepared in sterile MHB by stirring at 37 °C until dissolved and then filtered using a sterile 0.22 μm membrane. Serial twofold dilutions were prepared to provide a concentration range of […] to 0.1% w/v. Inoculum was diluted in MHB to produce a final inoculum density of 1 × 10^6 cfu mL^–1, verified by viable count. The inoculum (100 μL) was added to an equal volume of ionic liquid and incubated for 24 h (37 °C, 100 rpm). Positive (100 μL ofMHB/100 μL of inoculum) and negative controls (200 μL of MHB) were included in each assay. A minimum of five replicates of each dilution and controls were included.
(§3) Determination of the MIC was taken as the lowest concentration that produced no visible growth after 24 h incubation.

P. aeruginosa (PA01) = experiment: MIC and MBC by standardized broth dilution; format: cell-based, Pseudomonas aeruginosa; conditions: for MBC: 99.9% killing; for MBC / MIC: >1000 = beyond tested concentration range; for MIC: 24 h, MHB
Experimental: as §1, §2, §3

[1] = parameters: method as in PMID 29518336; conditions: cited from earlier work
[2] = parameters: method as in earlier work; conditions: ref 39 (Kruszewska et al.); cited from earlier work
P. aeruginosa = system: P. aeruginosa; parameters: method as in PMID 17655912; conditions: 10^6 cfu mL^–1 P. aeruginosa inoculum, within 6 h, concentrations as low as 0.08 mg/L; cited from earlier work
[3] = 5 μg mL^–1, equine erythrocytes
[4] = 25 μg mL^–1, equine erythrocytes

## CCCCC(CC)COC(=O)CC(C(=O)OCC(CC)CCCC)S(=O)(=O)[O-].CCCC[P+](CCO)(CCCC)CCCC (stereo not shown) [[P444 2OH][AOT], tributyl(hydroxyethyl)phosphonium docusate]
Equine erythrocytes; [3]
  hemolysis: < 10%
Equine erythrocytes; [4]
  hemolysis: 99.39%
S. aureus (ATCC 6538)
  MBC: 250 μg mL^–1
  MIC: 62.5 μg mL^–1
P. aeruginosa (PA01); P. aeruginosa
  MBC: >1000 μg mL^–1
  MIC: >1000 μg mL^–1

## CCCCC(CC)COC(=O)CC(C(=O)OCC(CC)CCCC)S(=O)(=O)[O-].CCCCCCCCCCCCCC[P+](CCCCCC)(CCCCCC)CCCCCC [[P666 14][AOT], Trihexyl(tetradecyl)phosphonium docusate]
Equine erythrocytes
  hemolytic activity (in words): not hemolytic
S. aureus (ATCC 6538)
  MBC: 1000 μg mL^–1
  MIC: 500 μg mL^–1
P. aeruginosa (PA01); P. aeruginosa
  MBC: >1000 μg mL^–1
  MIC: >1000 μg mL^–1

## CCCCCCCCCCCCCC[P+](CCCCCC)(CCCCCC)CCCCCC.O=S(=O)([N-]S(=O)(=O)C(F)(F)F)C(F)(F)F [[P666 14][Tf2N], Trihexyl(tetradecyl)phosphonium bis(trifluoromethylsulfonyl)imide]
[1]
  aqueous solubility: 260 µM
S. aureus (ATCC 6538)
  MBC: >1000 μg mL^–1
  MIC: >1000 μg mL^–1
S. aureus (ATCC 6538); within the tested concentration range
  antibacterial activity / growth inhibition (in words): no antibacterial activity
P. aeruginosa (PA01); P. aeruginosa
  MBC: >1000 μg mL^–1
  MIC: >1000 μg mL^–1
P. aeruginosa (PA01); P. aeruginosa, within the tested concentration range
  antibacterial activity / growth inhibition (in words): no antimicrobial activity

## CCCCC(CC)COC(=O)CC(C(=O)OCC(CC)CCCC)S(=O)(=O)[O-].CCCCCCCCCCCCCC[P+](CCCCCCCC)(CCCCCCCC)CCCCCCCC [[P888 14][AOT], trioctyl(tetradecyl)phosphonium docusate]
Equine erythrocytes; [3]
  hemolysis: < 10%
Equine erythrocytes; [4]
  hemolysis: 102.3%
S. aureus (ATCC 6538)
  MIC potency relative to the other [AOT]-containing ionic liquids: 16–128 fold
  MBC: 7.81 μg mL^–1
  MIC: 3.91 μg mL^–1
P. aeruginosa (PA01)
  rise of MBC against P. aeruginosa relative to S. aureus: 128 fold
  rise of MIC against P. aeruginosa relative to S. aureus: 64 fold
P. aeruginosa (PA01); P. aeruginosa
  MBC: 1000 μg mL^–1
  MIC: 250 μg mL^–1

## CCCCC(CC)COC(=O)CC(C(=O)OCC(CC)CCCC)S(=O)(=O)[O-].CCCCCCCCCCCCCCCCCC[P+](C)(CCCCCCCCCCCCCCCCCC)CCCCCCCCCCCCCCCCCC [[P181818 1][AOT], trioctadecyl(methyl)phosphonium docusate]
Equine erythrocytes
  hemolytic activity (in words): not hemolytic
S. aureus (ATCC 6538)
  MBC: 500 μg mL^–1
  MIC: 250 μg mL^–1
P. aeruginosa (PA01); P. aeruginosa
  MBC: >1000 μg mL^–1
  MIC: >1000 μg mL^–1

## CCCCC(CC)COC(=O)CC(C(=O)OCC(CC)CCCC)S(=O)(=O)O (stereo not shown) [sodium docusate]
[2]
  MIC: 3000 μg mL^–1

## Silver ions
P. aeruginosa
  eradication of inoculum: ≤ 99.999%
